Test results: the supplement of paper PMC5908809

Assays:
KHYG-1 (IL-2 2.5 ng/mL) [1] = assay: drug sensitivity score (DSS) (DSS units); higher = more sensitive; extreme values may be limits of the assay; conditions: 72 h
DERL-7 (IL-2 2.5 ng/mL) [2] = assay: as above; conditions: 72 h
KAI3 (IL-2 2.5 ng/mL) [3] = assay: as above; conditions: 72 h
[4] = system: normal primary NK cells, pool 1 (3 donors), resting (IL-2 0 ng/mL); assay: as above; conditions: 72 h
[5] = system: normal primary NK cells, pool 1 (3 donors) (IL-2 2.5 ng/mL); assay: as above; conditions: 72 h
NKL (IL-2 2.5 ng/mL) [6] = assay: as above; conditions: 72 h
[7] = system: normal primary NK cells, pool 2 (3 donors) (IL-2 2.5 ng/mL); assay: as above; conditions: 72 h
IMC-1 (IL-2 20 ng/mL) [8] = assay: as above; conditions: 72 h
NK-YS (IL-2 2.5 ng/mL) [9] = assay: as above; conditions: 72 h
NK-92 (IL-2 2.5 ng/mL) [10] = assay: as above; conditions: 72 h
SNK-6 (IL-2 2.5 ng/mL) [11] = assay: as above; conditions: 72 h
YT (IL-2 2.5 ng/mL) [12] = assay: as above; conditions: 72 h
[13] = system: normal primary NK cells, pool 3 (3 donors) (IL-2 2.5 ng/mL); assay: as above; conditions: 72 h
[14] = system: normal NK cells expanded with K562-aAPC; assay: percent inhibition of viability; higher = more inhibition; conditions: 72 h, IL-2 2.5 ng/mL
Description: (§1)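 Drug sensitivity and resistance testing on K562-aAPC-expanded normal NK cells: 5 concentrations (10-fold steps over a 10,000-fold range), 72 h at 37 °C, viability by CellTiter-Glo normalised to DMSO and benzethonium chloride controls; DSS from the fitted curve.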

KHYG-1 (IL-2 2.5 ng/mL) [15] = assay: as above; conditions: 72 h
DERL-7 (IL-2 2.5 ng/mL) [16] = assay: as above; conditions: 72 h
KAI3 (IL-2 2.5 ng/mL) [17] = assay: as above; conditions: 72 h
[18] = system: normal primary NK cells, pool 1 (3 donors), resting (IL-2 0 ng/mL); assay: as above; conditions: 72 h
[19] = system: normal primary NK cells, pool 1 (3 donors) (IL-2 2.5 ng/mL); assay: as above; conditions: 72 h
NKL (IL-2 2.5 ng/mL) [20] = assay: as above; conditions: 72 h
[21] = system: normal primary NK cells, pool 2 (3 donors) (IL-2 2.5 ng/mL); assay: as above; conditions: 72 h
IMC-1 (IL-2 20 ng/mL) [22] = assay: as above; conditions: 72 h
NK-YS (IL-2 2.5 ng/mL) [23] = assay: as above; conditions: 72 h
NK-92 (IL-2 2.5 ng/mL) [24] = assay: as above; conditions: 72 h
SNK-6 (IL-2 2.5 ng/mL) [25] = assay: as above; conditions: 72 h
YT (IL-2 2.5 ng/mL) [26] = assay: as above; conditions: 72 h
[27] = system: normal primary NK cells, pool 3 (3 donors) (IL-2 2.5 ng/mL); assay: as above; conditions: 72 h
[28] = system: normal NK cells expanded with K562-aAPC; assay: drug sensitivity score (DSS) (DSS units); higher = more sensitive; extreme values may be limits of the assay; conditions: 72 h; IL-2 2.5 ng/mL
Description: as §1

CC(C)n1cnc2c(NCCc3ccc(O)cc3)nc(-c3csc4ccccc34)nc21 [StemRegenin 1] (max concentration tested 10000 nM)
Conditions | drug sensitivity score
DERL-7 (IL-2 2.5 ng/mL) [2] | 21.1
IMC-1 (IL-2 20 ng/mL) [8] | 0
KAI3 (IL-2 2.5 ng/mL) [3] | 4.25
KHYG-1 (IL-2 2.5 ng/mL) [1] | 6.85
NK-92 (IL-2 2.5 ng/mL) [10] | 10.6
NK-YS (IL-2 2.5 ng/mL) [9] | 1.09
NKL (IL-2 2.5 ng/mL) [6] | 7.36
SNK-6 (IL-2 2.5 ng/mL) [11] | 3.24
YT (IL-2 2.5 ng/mL) [12] | 4.83
[4] | 6.2
[5] | 3.58
[7] | 2.7
[13] | 1.7
[28] | 0

percent inhibition of viability [%]
Conditions | 1 nM | 10 nM | 100 nM | 1000 nM | 10000 nM
DERL-7 (IL-2 2.5 ng/mL) [16] | 2.23 | 15.4 | 50.9 | 71.1 | 96.4
IMC-1 (IL-2 20 ng/mL) [22] | -6.67 | -2.1 | -7.77 | -8.29 | 0.67
KAI3 (IL-2 2.5 ng/mL) [17] | -8.14 | 3.68 | 6.57 | -0.19 | 76.8
KHYG-1 (IL-2 2.5 ng/mL) [15] | -5.41 | -0.83 | 0.98 | 8.59 | 98.9
NK-92 (IL-2 2.5 ng/mL) [24] | -11 | -16.6 | 1.48 | 39.2 | 97.7
NK-YS (IL-2 2.5 ng/mL) [23] | -3.67 | -6.84 | -5.59 | 1.14 | 24.9
NKL (IL-2 2.5 ng/mL) [20] | -9.52 | 0.88 | 5.6 | 18.4 | 80.4
SNK-6 (IL-2 2.5 ng/mL) [25] | -6.98 | 28.7 | -5.97 | -12.5 | 71.9
YT (IL-2 2.5 ng/mL) [26] | -5.32 | -2.81 | 0.29 | 5.57 | 71.9
[14] | -5.56 | -5.75 | -5.39 | -7.57 | 0.59
[18] | -11.7 | -11.1 | 15.2 | 12.3 | 74.7
[19] | -8.25 | -4.37 | -0.27 | 7.52 | 45
[21] | -1.53 | -2.41 | -0.22 | -2.53 | 54.6
[27] | -3.75 | -2.11 | -2.9 | -0.23 | 36
